Series [1] is described as follows: Stability test in liver microsomes, human. In kind it is in vitro ADME. Conditions: for half-life at 1 μM: 0.5 mg/mL. Here is the method: (§1) A stability of the compound of the present application in liver microsomes of human, rat and mouse was measured.
(§2) 3.1 A buffer and a liver microsome were prepared into an incubation solution according to the following table:
(§3) 3.2 The following two experiments were carried out respectively: a) incubation system added with coenzyme factor NADPH: 25 μL of NADPH (10 mM) was added into an incubation solution (mainly comprising a liver microsome and a phosphate buffer), so that final concentrations of the liver microsome and the NADPH were 0.5 mg/mL and […] respectively; and b) incubation system without coenzyme factor NADPH: 25 μL of phosphate buffer (100 mM) was added into the incubation solution, so that the final concentration of the liver microsome was 0.5 mg/mL. The incubation systems above were preheated at 37° C. for 10 minutes respectively.
(§4) 3.3 2.5 μL of positive control compound or a tested compound solution (100 μM) was added into the incubation systems described in “step 3.2” above respectively for reaction, and the positive control compound was verapamil (purchased from Sigma), so that a final concentration of the tested compound of the present application or the positive control compound was 1 μM. The incubation solution added with the compound was incubated in water at 37° C. in batches.
(§5) 3.4 30 μL of aliquot was taken from a reaction solution after 0.5 minute, 5 minutes, 15 minutes, 30 minutes and 45 minutes respectively, and the reaction was terminated by adding 5 times volume of cold acetonitrile containing 200 nM caffeine and 100 nM tolbutamide. The aliquot was centrifuged at a gravity acceleration of 3,220 g for 40 minutes, and 100 μL of supernatant was mixed with 100 μL of ultrapure water, and then used for LC-MS/MS analysis.
(§6) A peak area was determined by an extracted ion chromatogram. A slope value k was determined by linear regression of a remaining percentage of a parent drug relative to […] an incubation time curve.
(§7) In-vitro half-life periods (t1/2) were respectively calculated and determined according to the slope value, and an average value of the in-vitro half-life periods was converted into an in-vitro intrinsic clearance rate (CLint, represented by μL/min/mg protein).
(In general: Liver microsomes are vesicles of endoplasmic reticulum, rich in cytochrome P450 enzymes.)

The nature of series [2]: Stability test in liver microsomes, rat. Conditions: for half-life at 1 μM: 0.5 mg/mL. The series is classed as in vitro ADME. Here is the method:
as §1, §2, §3, §4, §5, §6, §7

The test system of a further series is Ba/F3-LMNA-NTRK1-F589L. Nature of the series: In-vitro cell viability (CellTiter-Glo), BaF3 cell lines. In kind it is cell-based. The note with it: Mus musculus, 72 hours. Here is the method: (§8) Hefei Precedo Biomedical Technology Co., Ltd. was commissioned to complete the testing example, and the cell lines used were constructed by this company.
(§9) In-vitro anti-proliferative effects of the compound of the present application on 6 BaF3 cell lines were measured.
(§10) 6 Ba/F3 cell lines were cultured with RPMI 1640 (Biological Industries, Israel)+10% fetal calf serum (Biological Industries, Israel)+1% double antibiotics (Penicillin Streptomycin solution, Coring, USA), and cells were cultured for two generations after resuscitation, to be tested.
(§11) The to-be-tested compound was prepared into 10 mM mother solution with DMSO, and then diluted to 1 mM with DMSO. The solution was diluted by 3 times to prepare into 1.0000 mM, 0.3333 mM, 0.1111 mM, 0.03704 mM, 0.01235 mM, 0.00412 mM, 0.00137 mM, 0.00046 mM, 0.00015 mM, and […], and stored in a 96-well drug plate (Beaver, Suzhou), with 10 concentration gradients in total. Meanwhile, an equal volume of DMSO solvent was used as a negative control.
(§12) The prepared 1,000× compounds of 10 concentration gradients were respectively diluted by 50 times into 20× compounds with complete medium, and stored in a 96-well drug plate (Beaver, Suzhou), with 10 concentration gradients in total. Meanwhile, an equal volume of DMSO solvent was used as a negative control.
(§13) Cell suspension in logarithmic growth phase was inoculated on a 96-well white cell culture plate (Corning 3917, NY, USA), and a volume of each well was 95 μl (about 2000 cells/well).
(§14) 5 μl of 20× to-be-tested compounds were respectively added into the culture plate containing 95 μl of cell suspension above, and mixed evenly, with 2 wells for each concentration gradient. Final concentrations of the to-be-tested compounds were 1.0000 μM, 0.3333 μM, 0.1111 μM, 0.03704 μM, 0.01235 μM, 0.00412 μM, 0.00137 μM, 0.00046 μM, 0.00015 μM, and […] respectively.
(§15) Incubation was carried out in an incubator at 37° C. under 5% CO2 for 72 hours.
(§16) The following steps were carried out according to the instruction of Promega CellTiter-Glo Luminescence Cell Viability Assay Kit (Promega-G7573).
(§17) A corresponding […] value RLU of each well was obtained through reading by SpectraMax Paradigm. Cell viability data was processed by the following formula:
(§18) Cell viability(%)=(RLUDrug−RLUMin)/(RLUMax−RLUMin)*100%. Cell viabilities of compounds of different concentrations were calculated in EXCEL, then cell viability curves were made by GraphPad Prism software, and related parameters were calculated. The parameters comprised a maximum cell viability, a minimum cell viability, and an IC50 value.
On the technique in general: In ATP-based viability assays light output follows the ATP content of the culture.

In a further series the test system is Ba/F3-LMNA-NTRK1-V573I. Described as above. In kind it is cell-based. Conditions: Mus musculus, 72 hours. How it is done:
as §8, §9, §10, §11, §12, §13, §14, §15, §16, §17, §18

The test system of a further series is Ba/F3-LMNA-NTRK1. Described as above. The series is classed as cell-based. The note with it: Mus musculus, 72 hours. How it is done:
as §8, §9, §10, §11, §12, §13, §14, §15, §16, §17, §18

The subject of another series is Ba/F3-TEL-NTRK2. The series is described as above. The series is classed as cell-based. Conditions: Mus musculus, 72 hours. How it is done: as §8, §9, §10, §11, §12, §13, §14, §15, §16, §17, §18
The next series deals with Ba/F3-TEL-NTRK3. The description is as above. In kind it is cell-based. Conditions: Mus musculus, 72 hours. How it is done:
as §8, §9, §10, §11, §12, §13, §14, §15, §16, §17, §18

Regarding `O=C1N[C@H]2C[C@H](C2)Oc2ncc(F)cc2[C@H]2CCCN2c2ccn3ncc1c3n2` (stereo in doubt) [Positive control 1, reference compound], the microsomal CLint at 1 μM in series [1] is 92.3 µL/min/mg; in series [2], 123 µL/min/mg. The half-life at 1 μM stood at 15 min in series [1] and 11.3 min in series [2]. Moreover, the “% Remaining(45 min)” value in series [1] is listed as 12.43%; in series [2], 9.03%. Further, the IC50 in the series with Ba/F3-LMNA-NTRK1-F589L is 6.6 nM; in the series with Ba/F3-LMNA-NTRK1-V573I, 0.2 nM; in the series on Ba/F3-LMNA-NTRK1 it was 0.5 nM; in the series on Ba/F3-TEL-NTRK2 it was 0.9 nM; in the series with Ba/F3-TEL-NTRK3, 0.9 nM.
Take `O=C1N[C@H]2C[C@H](C2)Oc2ncc(F)cc2[C@H]2CCCN2c2nc3c1cnn3cc2F` [Example 2, ((1^3E,1^4E,2^2R,5^1S,5^3S)-1^6,3^5-difluoro-4-oxa-6-aza-1(5,3)-pyrazolo[1,5-a]pyrimidine-3(3,2)-pyridine-2(1,2)-pyrrolidine-5(1,3)-cyclobutancycloheptan-7-one]: the microsomal CLint at 1 μM worked out at 86 µL/min/mg in series [1] and 214 µL/min/mg in series [2]. Besides, the half-life at 1 μM in series [1] amounted to 16.1 min; in series [2], 6.5 min. Moreover, the “% Remaining(45 min)” value turned out to be 14.38% in series [1] and 2.37% in series [2]. In addition, the IC50 with Ba/F3-LMNA-NTRK1-F589L came out at 2.4 nM; in the series on Ba/F3-LMNA-NTRK1-V573I, 0.3 nM; with Ba/F3-LMNA-NTRK1, 0.7 nM; in the series with Ba/F3-TEL-NTRK2 it was 1.6 nM; with Ba/F3-TEL-NTRK3, 1.7 nM.
For the compound `C[C@H]1Nc2nc3c(cnn3cc2F)C(=O)N[C@H]2C[C@H](C2)Oc2ncc(F)cc21` [Example 3, (3^1S,3^3S,6^3E,6^4E,8R)-1^5,6^6-difluoro-8-methyl-2-oxo-4,7-diaza-6(3,5)-pyrazolo[1,5-a]pyrimidine-1(2,3)-pyridine-3(1,3)-cyclobutylcyclooctane-5-one], the results for the microsomal CLint at 1 μM in series [1] and in series [2] were 11.1 µL/min/mg and 22.8 µL/min/mg, respectively. Moreover, the half-life at 1 μM was 128 min in series [1] and 60.8 min in series [2]. The “% Remaining(45 min)” value in series [1] was 69.89%; in series [2] it was 51.22%. The IC50 worked out at 1.2 nM in the series on Ba/F3-LMNA-NTRK1-F589L; 1.1 nM in the series on Ba/F3-LMNA-NTRK1-V573I; 1.6 nM with Ba/F3-LMNA-NTRK1; 3.4 nM in the series with Ba/F3-TEL-NTRK2; 5 nM in the series with Ba/F3-TEL-NTRK3.
Turning to `C[C@H]1Nc2ccn3ncc(c3n2)C(=O)N[C@H]2C[C@H](C2)Oc2ncc(F)cc21` [Positive control 2, reference compound], the microsomal CLint at 1 μM in series [1] amounted to 16.4 µL/min/mg; in series [2], 30 µL/min/mg. In addition, the half-life at 1 μM was found to be 84.8 min in series [1] and 46.3 min in series [2]. Besides, the “% Remaining(45 min)” value is given as 67.39% in series [1] and 40.95% in series [2]. Besides, the IC50 came to 4.5 nM in the series with Ba/F3-LMNA-NTRK1-F589L; 2.3 nM with Ba/F3-LMNA-NTRK1-V573I; 4.1 nM in the series with Ba/F3-LMNA-NTRK1; 7.3 nM in the series on Ba/F3-TEL-NTRK2; 9.8 nM in the series with Ba/F3-TEL-NTRK3.

As usually defined, the microsomal CLint is a measure of how fast metabolising enzymes remove a compound, apart from limits set by blood flow. The low end stands for slow turnover, the high end for rapid turnover. What is called half-life is the time in which the quantity being followed falls by half. High values mean slow loss, low ones fast loss. For orientation: IC50 means the point on the concentration scale where inhibition reaches its midpoint. A high value points to a need for much substance.

For the origin of these results see patent publication US12428433B2, “Fluorine-containing heterocyclic derivatives with macrocyclic structure and use thereof” (ScinnoHub Pharmaceutical Co., Ltd, priority 2019, dated 2025).
